In ChEMBL document CHEMBL1149437, “1-Alkyl-benzotriazole-5-carboxylic acids are highly selective agonists of the human orphan G-protein-coupled receptor GPR109b” (J Med Chem, 2006):
Activity calls are given as the source filed them. The calls are words filed in the database; no cut-off is given here.

Assays:
[1] = target: Hydroxycarboxylic acid receptor 2 (Mus musculus) (UniProt Q9EP66); assay: Activity against GPR109a upto 100 uM; assay type: functional
[2] = target: Hydroxycarboxylic acid receptor 3 (Homo sapiens, UniProt P49019); assay: Agonistic activity at GPR109b by cAMP whole cell assay; assay type: functional
Hydroxycarboxylic acid receptor 3, sequence (P49019 whole entry): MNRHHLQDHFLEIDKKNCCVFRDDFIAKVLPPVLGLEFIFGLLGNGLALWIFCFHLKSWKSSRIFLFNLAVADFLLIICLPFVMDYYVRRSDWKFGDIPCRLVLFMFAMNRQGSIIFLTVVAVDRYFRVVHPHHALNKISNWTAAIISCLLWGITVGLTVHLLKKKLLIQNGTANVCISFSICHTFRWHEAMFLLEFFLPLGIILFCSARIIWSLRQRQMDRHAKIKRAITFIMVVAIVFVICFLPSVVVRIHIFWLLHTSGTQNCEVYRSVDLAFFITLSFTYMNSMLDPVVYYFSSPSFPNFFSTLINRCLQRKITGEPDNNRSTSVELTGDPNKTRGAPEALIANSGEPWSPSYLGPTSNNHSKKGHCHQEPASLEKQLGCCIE

[3] = target: Adrenergic receptor beta (Homo sapiens) (UniProt P08588+P07550+P13945); assay: Activity against beta adrenergic receptor; assay type: protein assay

Hydroxycarboxylic acid receptor 2 (Mus musculus), sequence (Q9EP66 whole entry): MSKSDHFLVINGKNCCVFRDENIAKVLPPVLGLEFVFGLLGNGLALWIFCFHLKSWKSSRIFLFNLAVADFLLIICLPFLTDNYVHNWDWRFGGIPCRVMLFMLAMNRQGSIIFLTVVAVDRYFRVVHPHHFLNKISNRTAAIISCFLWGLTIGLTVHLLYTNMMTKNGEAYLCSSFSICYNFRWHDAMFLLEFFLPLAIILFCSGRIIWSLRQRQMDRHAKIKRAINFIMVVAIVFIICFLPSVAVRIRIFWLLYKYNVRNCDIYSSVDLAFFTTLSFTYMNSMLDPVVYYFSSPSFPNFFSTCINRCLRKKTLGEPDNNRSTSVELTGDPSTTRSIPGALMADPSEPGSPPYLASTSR

| Structure (SMILES) | Activity [1] | EC50 [2] [nM] | Log EC50 [2] | Activity [3] |
| --- | --- | --- | --- | --- |
| O=C(O)c1ccc2c(c1)nnn2C1CC1 | inactive | 2340 |  |  |
| CCn1nnc2cc(C(=O)O)ccc21 | inactive | 891 |  |  |
| O=C(O)c1ccc2c(c1)nnn2Cc1cc(F)cc(F)c1 | inactive | > 10000 |  |  |
| CCC(CC)n1nnc2cc(C(=O)O)ccc21 | inactive | 3020 |  |  |
| COCCn1nnc2cc(C(=O)O)ccc21 | inactive | 316 |  |  |
| CCCCCn1nnc2cc(C(=O)O)ccc21 | inactive | 288 |  |  |
| O=C(O)c1ccc2c(c1)nnn2C1CCCCC1 | inactive | 5890 |  |  |
| O=C(O)c1ccc2c(c1)nnn2C(c1ccccc1)c1ccccc1 | inactive | > 10000 |  |  |
| CC(C)(C)n1nnc2cc(C(=O)O)ccc21 | inactive | 257 |  |  |
| C=CCn1nnc2cc(C(=O)O)ccc21 | inactive |  | inactive |  |
| COc1cccc(Cn2nnc3cc(C(=O)O)ccc32)c1 | inactive | 5010 |  |  |
| CC(C)n1cnc2cc(C(=O)O)ccc21 | inactive | 3390 |  |  |
| COc1ccc(Cn2nnc3cc(C(=O)O)ccc32)cc1 | inactive |  | inactive |  |
| COCC(C)n1nnc2cc(C(=O)O)ccc21 (centres undefined) | inactive | 200 |  |  |
| CC(C)n1nnc2cc(C(=O)O)ccc21 | inactive | 398 |  | inactive |

More lines, now with the values ahead:

| Activity [1] | EC50 [2] [nM] | Log EC50 [2] | Activity [3] | Structure (SMILES) |
| --- | --- | --- | --- | --- |
| inactive | 9120 |  |  | O=C(O)c1ccc2c(c1)nnn2Cc1ccccc1 |
| inactive | 3090 |  |  | O=C(O)c1ccc2c(c1)nnn2C1CCC1 |
| inactive |  | inactive |  | O=C(O)c1ccc2c(c1)nnn2-c1ccccc1 |
| inactive | 257 |  |  | CCOCCn1nnc2cc(C(=O)O)ccc21 |
| inactive | 331 |  |  | CCC(C)n1nnc2cc(C(=O)O)ccc21 (centres undefined) |
| inactive |  | inactive |  | Cc1nc2cc(C(=O)O)ccc2n1C(C)C |
| inactive | 7410 |  |  | CCCn1nnc2cc(C(=O)O)ccc21 |
| inactive | 2000 |  |  | Cn1nnc2cc(C(=O)O)ccc21 |
| inactive | 302 |  |  | CCSCCn1nnc2cc(C(=O)O)ccc21 |
| inactive | 1100 |  |  | O=C(O)c1ccc2c(c1)nnn2C1CCCC1 |
| inactive |  | inactive |  | O=C(O)c1ccc2[nH]nnc2c1 |
| inactive |  | inactive |  | CC(C)n1nnc2cc(-c3nn[nH]n3)ccc21 |
| inactive |  | inactive |  | O=C(O)c1ccc2c(c1)nnn2CC1CC1 |
| inactive | 692 |  |  | CCCCn1nnc2cc(C(=O)O)ccc21 |
